The source made the active and inactive calls. No cut-off for these calls is given here.
Experiments:
[1] = Drug uptake in human A549 cells at 10 uM after 15 mins by confocal scanning microscopic analysis; type: ADME, cell-based; conditions: a549, 0.25 h
[2] = Drug uptake in human HeLa cells at 10 uM after 15 mins by confocal scanning microscopic analysis; type: ADME, cell-based; conditions: 0.25 h
[3] = Drug uptake in human SGC-7901 cells at 10 uM after 15 mins by confocal scanning microscopic analysis; type: ADME, cell-based; conditions: sgc-7901, 0.25 h
[4] = Drug uptake in human HepG2 cells at 10 uM after 15 mins by confocal scanning microscopic analysis; type: ADME, cell-based; conditions: hepg2, 0.25 h
[5] = Prodrug release at pH 6.5 assessed as stability after 48 hrs in absence of GSH by LC-MS analysis; type: ADME; conditions: pH 6.5, 48 h
[6] = Prodrug release at pH 7.4 assessed as stability after 48 hrs in absence of GSH by LC-MS analysis; type: ADME; conditions: pH 7.4, 48 h
[7] = Toxicity in Kunming mouse implanted with mouse H22 cells assessed as change in body weight at 10 mg/kg after 7 days; type: organism-based; conditions: in vivo, 168 h, time 7 day
[8] = Toxicity in Kunming mouse implanted with mouse H22 cells assessed as change in organ weight at 10 mg/kg after 7 days; type: organism-based; conditions: in vivo, 168 h, time 7 day
[9] = Toxicity in Kunming mouse assessed as change in organ weight at 50 mg/kg; type: organism-based; conditions: in vivo
[10] = Toxicity in Kunming mouse assessed as change in body weight at 50 mg/kg; type: organism-based; conditions: in vivo
[11] = Prodrug release at pH 6.5 assessed as stability after 120 mins in presence of GSH by LC-MS analysis; type: ADME; conditions: pH 6.5, 2 h
[12] = Drug uptake in human HepG2 cells pretreated with galactose for 30 mins followed by compound addition and measured after 15 mins by confocal scanning microscopic analysis; type: ADME, cell-based; conditions: hepg2, 0.75 h, time 45 min
[13] = Drug distribution in Kunming mouse liver at 10 mg/kg, iv measured after 3 hrs by confocal scanning microscopic analysis; type: ADME, organism-based; conditions: in vivo
[14] = tested on: H22; experiment: Antitumor activity against mouse H22 cells implanted in Kunming mouse assessed as tumor growth inhibition at 10 mg/kg measured on day 7; type: functional; set-up: scale not given: the % may be the effect or the level left; conditions: time 7 day
[15] = tested on: H22; experiment: Antitumor activity against mouse H22 cells implanted in Kunming mouse assessed as tumor growth inhibition at 10 mg/kg measured on day 7 by H and E staining based histopathological analysis; type: functional, organism-based; conditions: time 7.0 day
[16] = Prodrug release assessed as stability after 24 hrs in presence of NADH by LC-MS analysis; type: ADME
[17] = tested on: HepG2; experiment: Cytotoxicity against human HepG2 cells at 10 to 80 uM after 24 hrs; type: cell-based; conditions: hepg2, 24 h, dose 10-80 µM
[18] = Drug distribution in Kunming mouse liver at 8.4 mg/kg, iv measured after 3 hrs by confocal scanning microscopic analysis; type: ADME, organism-based; conditions: in vivo
[19] = Stability of compound in GSH measured upto 24 hrs; type: physicochemical; conditions: GSH (glutathione), read-out: Stability

Drug uptake [1]	Drug uptake [2]	Drug uptake [3]	Drug uptake [4]	Stability [5]	Stability [6]	Stability [11]	Drug uptake [12]	Drug uptake [13]	Stability [16] [%]	Drug uptake [18]	remaining at 24 h [19] [%]	SMILES	Activity [7]	Activity [8]	Activity [9]	Activity [10]	Activity [14] [%]	Activity [15]	Activity [17]
Active	Active	Active	Active	Stable	Stable	Unstable	Not Active	Active	98.9			C=C[C@]1(C)CC[C@@H](C(=C)Cn2cc(CN3C(=O)c4cccc5c(N6CCN(C(=O)OCCSSCCOCC(=O)NC(COCc7cn([C@@H]8O[C@H](CO)[C@H](O)[C@H](O)[C@H]8O)nn7)(COCc7cn([C@@H]8O[C@H](CO)[C@H](O)[C@H](O)[C@H]8O)nn7)COCc7cn([C@@H]8O[C@H](CO)[C@H](O)[C@H](O)[C@H]8O)nn7)CC6)ccc(c45)C3=O)nn2)C[C@H]1C(=C)C	Non-Toxic	Non-Toxic	Non-Toxic	Non-Toxic	51.22	Active	Non-Toxic
Active	Active	Active	Active				Not Active			Active		C=C[C@]1(C)CC[C@@H](C(=C)Cn2cc(CN3C(=O)c4cccc5c(N6CCN(C(=O)OCCSSCCOCC(=O)NC(COCc7cn([C@@H]8O[C@H](CO)[C@H](O)[C@H](O)[C@H]8O)nn7)COCc7cn([C@@H]8O[C@H](CO)[C@H](O)[C@H](O)[C@H]8O)nn7)CC6)ccc(c45)C3=O)nn2)C[C@H]1C(=C)C							Non-Toxic
											99	C=C[C@]1(C)CC[C@@H](C(=C)Cn2cc(CN3C(=O)c4cccc5c(N6CCN(C(=O)OCCCCCCOCc7cn([C@@H]8O[C@H](CO)[C@H](O)[C@H](O)[C@H]8O)nn7)CC6)ccc(c45)C3=O)nn2)C[C@H]1C(=C)C							
